For assay [1], the target named is T1, Calpain-2 catalytic subunit (Sus scrofa, UniProt P43367).
T1 sequence (P43367 whole entry): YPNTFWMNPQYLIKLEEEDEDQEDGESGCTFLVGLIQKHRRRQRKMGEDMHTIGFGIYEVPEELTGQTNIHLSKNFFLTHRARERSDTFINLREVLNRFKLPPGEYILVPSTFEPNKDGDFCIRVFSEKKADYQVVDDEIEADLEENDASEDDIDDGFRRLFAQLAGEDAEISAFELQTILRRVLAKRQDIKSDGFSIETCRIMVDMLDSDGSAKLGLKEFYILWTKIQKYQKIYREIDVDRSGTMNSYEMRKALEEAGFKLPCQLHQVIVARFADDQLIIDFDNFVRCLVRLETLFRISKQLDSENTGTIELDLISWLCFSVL
Nature of the assay: pig calpain II inhibitor potency, dose response, biochemical, fluorogenic peptide substrate (AID 1420). Format: functional.

The nature of assay [2]: A Cell Based Secondary Assay To Explore Cytotoxicity of Compounds that Sensitize Mycobacterium Tuberculosis to Beta-Lactam Antibiotics. The assay is classed as functional.
Assay [3] in a line: Luminescence Cell-Based Dose Retest to Confirm Inhibitors of Cancer Stem Cells. [Related pubchem assays (depositor defined):AID2717, AID2721]. To be noted: Homo sapiens. Format: functional.
The next assay deals with T2, Protein skinhead-1 (Caenorhabditis elegans, UniProt P34707).
T2 sequence (P34707 whole entry): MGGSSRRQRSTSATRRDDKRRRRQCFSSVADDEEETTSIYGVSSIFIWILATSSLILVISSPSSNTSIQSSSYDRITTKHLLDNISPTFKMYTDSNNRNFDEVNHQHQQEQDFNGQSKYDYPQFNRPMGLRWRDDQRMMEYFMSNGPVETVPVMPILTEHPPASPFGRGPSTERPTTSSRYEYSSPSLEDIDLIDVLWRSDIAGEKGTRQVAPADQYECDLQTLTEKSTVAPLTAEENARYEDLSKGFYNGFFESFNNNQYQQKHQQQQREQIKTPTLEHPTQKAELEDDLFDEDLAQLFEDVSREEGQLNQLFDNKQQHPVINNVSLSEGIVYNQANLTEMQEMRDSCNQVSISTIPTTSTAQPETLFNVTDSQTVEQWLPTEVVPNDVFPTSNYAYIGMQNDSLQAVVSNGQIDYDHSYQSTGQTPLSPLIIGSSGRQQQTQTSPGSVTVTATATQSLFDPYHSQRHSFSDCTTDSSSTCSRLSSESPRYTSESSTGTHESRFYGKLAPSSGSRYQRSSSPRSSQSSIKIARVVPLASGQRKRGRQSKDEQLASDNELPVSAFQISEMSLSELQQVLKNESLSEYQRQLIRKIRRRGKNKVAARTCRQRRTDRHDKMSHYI
Format: functional.

The target of the next assay is T3, Estrogen receptor (Homo sapiens, UniProt P03372).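 Also: potency for inhibiting coactivator peptide recruitment to the receptor.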
T3 sequence (P03372 whole entry): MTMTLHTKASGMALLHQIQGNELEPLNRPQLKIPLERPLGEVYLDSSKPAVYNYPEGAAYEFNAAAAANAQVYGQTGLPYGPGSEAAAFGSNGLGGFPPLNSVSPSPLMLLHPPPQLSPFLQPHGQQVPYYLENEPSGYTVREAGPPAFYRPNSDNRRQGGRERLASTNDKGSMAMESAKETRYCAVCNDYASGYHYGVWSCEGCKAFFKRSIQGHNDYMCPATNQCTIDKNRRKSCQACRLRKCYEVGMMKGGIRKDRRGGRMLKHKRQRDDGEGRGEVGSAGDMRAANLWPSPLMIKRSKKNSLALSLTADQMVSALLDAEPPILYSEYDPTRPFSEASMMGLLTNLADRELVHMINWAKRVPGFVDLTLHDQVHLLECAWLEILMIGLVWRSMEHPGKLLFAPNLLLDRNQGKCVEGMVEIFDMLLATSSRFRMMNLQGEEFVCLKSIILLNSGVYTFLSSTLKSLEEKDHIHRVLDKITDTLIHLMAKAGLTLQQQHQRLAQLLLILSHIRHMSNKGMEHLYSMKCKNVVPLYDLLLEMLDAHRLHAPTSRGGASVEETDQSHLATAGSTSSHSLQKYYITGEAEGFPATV

A short description of assay [4]: microbe, parasite or virus in culture. To be noted: Mycobacterium tuberculosis. The assay is classed as functional.
A short description of assay [5]: inhibitors of intracellular T. cruzi replication, confirmation, NIH3T3 host cells, beta-gal luminescence (AID 2044).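 Also: intracellular parasites grown in NIH/3T3 mouse fibroblasts as host cells; luminescent beta-galactosidase reporter signal from transgenic T. cruzi replicating inside host cells; inhibitors lower the luminescence signal.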 Format: functional, cell-based.
Assay [6] is described as follows: cytotoxicity toward NIH3T3 fibroblasts, dose response, counter-screen, cell-based, ATP luminescence, mouse fibroblasts (AID 2010).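 Also: cells exposed to compound for about 90 hours before reading.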 Format: functional. A general note: The purpose of a counterscreen is to sort out artefacts and off-target activity.
In another assay the test system is H9c2. Briefly: cells. Format: functional, cell-based. As to conditions: Rattus norvegicus, H9c2, Myocardium.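 Also: confirmatory concentration-response retest of ultra-high-throughput screening hits for modulation of myocardial damage; cell death induced by hydrogen peroxide oxidative stress; compound pretreatment for 60 min then peroxide exposure for 2 h; potency is for protecting the cells against peroxide damage rather than for killing them.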
Assay [7] is described as follows: growth suppression of PTEN-null colon cells, dose response, cell-based, HCT116 PTEN knockout (AID 1047).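 Also: HCT116 colon tumor cells with PTEN knocked out; cells exposed to compound for 60 hours before readout; potency for loss of cell viability measured by luminescence.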 The assay is classed as functional.
Assay [8] in a line: growth suppression of beta-catenin-knockout colon cells, dose response, cell-based, HCT116, human colon tumor (AID 1045).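 Also: HCT116 colon tumor cells with beta catenin knocked out; cells exposed to compound for 60 hours.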 The assay is classed as functional.
In assay [9] the target is T4, Carboxy-terminal domain RNA polymerase II polypeptide A small phosphatase 1 (Homo sapiens, UniProt Q9GZU7).
T4 sequence (Q9GZU7 whole entry): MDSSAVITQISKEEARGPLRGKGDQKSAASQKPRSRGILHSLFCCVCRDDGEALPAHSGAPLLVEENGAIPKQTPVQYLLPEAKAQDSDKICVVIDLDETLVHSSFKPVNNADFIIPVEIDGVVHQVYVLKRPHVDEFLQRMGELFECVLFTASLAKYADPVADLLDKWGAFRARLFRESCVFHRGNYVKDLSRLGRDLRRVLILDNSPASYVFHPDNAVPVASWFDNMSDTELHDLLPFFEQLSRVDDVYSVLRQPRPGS
Briefly: inhibitors of CTDSP1, concentration-response testing, biochemical assay, absorbance-based, actives from ultra-high-throughput screening (AID 540297). The assay is classed as functional.

Assay [10] addresses T5, Heat shock factor protein 1 (Mus musculus, UniProt P38532).
T5 sequence (P38532 whole entry): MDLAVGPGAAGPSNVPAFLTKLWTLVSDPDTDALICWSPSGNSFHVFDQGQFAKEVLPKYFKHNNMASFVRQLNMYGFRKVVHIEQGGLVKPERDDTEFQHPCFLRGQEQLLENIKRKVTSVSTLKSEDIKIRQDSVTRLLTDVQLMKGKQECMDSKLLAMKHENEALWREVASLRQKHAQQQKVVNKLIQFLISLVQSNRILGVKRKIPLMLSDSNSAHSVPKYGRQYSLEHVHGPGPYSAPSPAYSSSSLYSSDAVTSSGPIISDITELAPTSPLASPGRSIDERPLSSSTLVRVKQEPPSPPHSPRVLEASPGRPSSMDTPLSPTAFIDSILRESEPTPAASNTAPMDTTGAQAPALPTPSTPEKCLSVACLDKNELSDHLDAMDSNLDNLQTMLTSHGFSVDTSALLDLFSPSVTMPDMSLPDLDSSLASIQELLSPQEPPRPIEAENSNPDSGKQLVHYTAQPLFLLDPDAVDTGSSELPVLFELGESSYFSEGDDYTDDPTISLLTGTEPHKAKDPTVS
Nature of the assay: inhibition of MG132-induced HSE-luciferase signal, confirmation, cell-based, NIH3T3, luminescence, dose retest (AID 2382).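 Also: NIH3T3 fibroblasts with HSF1-driven luciferase reporter stressed by proteasome inhibitor MG132; luminescence from HSF1-driven luciferase expression after 8 hours of MG132 stress.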 The assay is classed as functional.

Another assay concerns INS1. Briefly: beta cell apoptosis inhibitors, cytokine rescue, dose response, luminescence, retest (AID 449756).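 Also: cell death triggered by IL-1 beta plus TNF-alpha plus IFN-gamma mixture; protective hits raise ATP signal compared with cytokine alone wells.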 The assay is classed as functional, cell-based. As to conditions: Rattus norvegicus.
Assay [11] addresses T6, Microphthalmia-associated transcription factor (Homo sapiens, UniProt O75030).
T6 sequence (O75030 whole entry): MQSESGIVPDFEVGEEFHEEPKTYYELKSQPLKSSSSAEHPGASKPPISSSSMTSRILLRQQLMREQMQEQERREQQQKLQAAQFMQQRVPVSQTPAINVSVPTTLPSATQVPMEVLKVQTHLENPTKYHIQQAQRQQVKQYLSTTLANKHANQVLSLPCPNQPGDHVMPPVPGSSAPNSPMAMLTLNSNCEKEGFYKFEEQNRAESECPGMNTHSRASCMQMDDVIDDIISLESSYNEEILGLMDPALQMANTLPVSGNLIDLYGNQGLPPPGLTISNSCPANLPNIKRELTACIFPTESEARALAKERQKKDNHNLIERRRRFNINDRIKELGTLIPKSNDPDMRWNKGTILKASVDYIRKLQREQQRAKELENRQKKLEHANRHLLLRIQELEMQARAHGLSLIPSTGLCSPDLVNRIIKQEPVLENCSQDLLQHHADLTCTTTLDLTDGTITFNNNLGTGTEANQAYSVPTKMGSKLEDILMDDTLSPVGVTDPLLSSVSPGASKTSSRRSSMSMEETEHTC
Briefly: TRPM1 promoter luciferase signal decrease, dose response, MITF inhibitor project, cell-based, SK-MEL-5, cherry-picked, set 3 (AID 493073).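 Also: SK-MEL-5 melanoma cells with luciferase driven by the MITF target TRPM1 promoter.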 The assay is classed as functional.

Calls of active or inactive are those of the source.

The text below walks through data of ChEMBL document CHEMBL1201862, “PubChem BioAssay data set” (2004).

For `CCCc1nc(SCC(=O)N2CCCc3ccccc32)c2c(=O)n(C)c(=O)n(C)c2n1`, the IC50 in assay [1] is listed as 16.7 µM (not active).

For `NC(=O)CC(NC(=O)Cc1ccc(Br)cc1)c1ccc(NC2CCCCCC2)c([N+](=O)[O-])c1` (stereo not drawn), the CC50 in [2] was > 40 µM (active). In assay [3], the AC50 was 4.61 µM (active).

Regarding `CCn1nc(C(=O)OCC(=O)N2c3ccccc3CC2C)c2ccccc2c1=O` (stereo not drawn), the IC50 in assay [1] is 29.2 µM (not active).

Take `Cc1cc(C(F)(F)F)n2ncc(-c3ccc(F)cc3)c2n1`: the IC50 on Protein skinhead-1 was > 100 µM (inactive).

Regarding `Cn1nnnc1SCC(=O)NC1CCCCC1`, the IC50 in assay [1] was < 0.4 µM (not active).

As for `Cc1ccc(CNc2nc3ccccc3n3nnnc23)cc1`, the IC50 against Estrogen receptor is recorded as > 50 µM (not active).

In the case of `Cc1ccc(-c2noc(C3CCCN(C(=O)c4ccc(C(C)(C)C)cc4)C3)n2)o1` (stereo not drawn), the CC50 in assay [4] was > 40 µM (active).

On to `COc1cc2cnc(-c3ccsc3)c(-c3ccc(F)cc3)c2cc1OC`, for which the CC50 in [2] is > 40 µM (active).

`Cc1ccc(S(=O)(=O)n2ccc3c(OCCOCCNCc4ccc(F)cc4)cccc32)cc1`: the EC50 in [5] was 0.226 µM (active); in assay [6], > 30 µM (not active). Besides, the CC50 in assay [4] is 13.3 µM (active).

As to `O=C(NC1CCCCC1)C(c1ccc2ncccc2c1)N(Cc1ccco1)C(=O)c1ccc2c(c1)OCCO2` (stereo not drawn), the CC50 in assay [4] was > 40 µM (active). Further, in the assay with H9c2, the IC50 was 12.6 µM (active).

With `CN=C(S)N=NC1=C(O)c2cccc3cccc1c23`, in assay [2], the CC50 is 28.2 µM (active). For the same compound, the EC50 in assay [7] was 13.9 µM (active); in assay [8] it was 10.5 µM (active).

Turning to `COc1ccc(-c2nc(C(N)=O)c3[nH]c(=O)n(-c4cccc(Cl)c4)c3n2)cc1OC`, on Estrogen receptor, the IC50 is 6.26 µM (active).

Take `COc1ccc(N2CCN(c3nc(NC(C)(C)C)nc(N4CCCCC4)n3)CC2)cc1`: the IC50 in [1] is on record as 24.4 µM (not active).

Take `FC(F)(F)c1cccc(NCc2nnc(S)n2C2CCCCC2)c1`: the IC50 in [1] is 27.8 µM (not active).

In the case of `CC(=O)c1c(C)[nH]c(C(=O)COc2ccc(C#N)cc2)c1C`, on Estrogen receptor, the IC50 was 34 µM (not active).

On to `CCSc1nc2ccccc2c(=O)n1CCc1ccc(OC)c(OC)c1`, for which the CC50 in [2] is > 40 µM (active).

As for `CCOc1ccc(NC(=O)c2cc3cc4ccc(OC)cc4nc3o2)cc1`, the IC50 is 47.3 µM (not active) on Estrogen receptor and 6.92 µM (active) in [9].

As to `CCOc1cc(C)c(S(=O)(=O)NC2CCCCC2)cc1C`, the EC50 in [10] was > 195 µM (not active). Also, the IC50 in [1] is given as > 50 µM (not active).

Take `O=C(CN1CCC(n2nnc3cc(C(F)(F)F)ccc32)CC1)NCc1cccs1`: in assay [4], the CC50 is > 40 µM (active).

Take `COc1cc(CNc2ccc(NC(C)=O)cc2)ccc1OCc1ccccc1C`: in assay [2], the CC50 is > 40 µM (active).

Turning to `COc1cc(CNCCO)cc(Br)c1OCc1ccccc1Cl`, the CC50 in assay [2] is 20.3 µM (active).

`O=C(c1cccc(F)c1)N1CCN(c2cccc(C(F)(F)F)c2)CC1`: on Protein skinhead-1, the IC50 is > 100 µM (inactive).

Consider `CCOc1ccc(Oc2ccc(-c3nnc(-c4ccccc4)o3)cc2[N+](=O)[O-])cc1`, for which the IC50 in [1] was 4.33 µM (not active).

As to `O=C1c2ccccc2C(=O)N1CCc1nc(-c2ccc(Cl)cc2)no1`, the IC50 at Protein skinhead-1 is 94.6 µM (inactive).

As for `CCN(CC)C(=O)c1cc([N+](=O)[O-])cc2c1-c1ccc([N+](=O)[O-])cc1C2=C(C#N)C#N`, the CC50 in assay [4] is > 40 µM (active). For the same compound, the AC50 in the assay with INS1 was 6.32 µM (active).

`Cc1cc(F)ccc1S(=O)(=O)N1CCCOC1CNC(=O)C(=O)NCc1ccc2c(c1)OCO2` (stereo not drawn): on Protein skinhead-1, the IC50 was > 100 µM (inactive).

Regarding `c1ccc(-n2nnc(-c3nccs3)n2)cc1`, the IC50 at Protein skinhead-1 is 88.2 µM (inactive).

Turning to `CCOc1ccc(NC(=O)CCN2CCN(C)CC2)cc1`, the IC50 on Protein skinhead-1 is > 100 µM (inactive).

On to `COCCn1c(SCC(=O)Nc2cccc(C)c2)nnc1C(C)C`, for which the IC50 at Protein skinhead-1 was > 100 µM (inactive).

On to `C/C(=N\NC(=N)SC1CC(=O)N(c2ccc(Cl)cc2)C1=O)c1cccs1` (stereo not drawn), for which, in assay [4], the CC50 was > 40 µM (active).

For `O=C(N/N=C/c1ccc([N+](=O)[O-])o1)c1ccccc1-n1cccc1`, the CC50 in assay [2] is 32.1 µM (active). Further, the results for the EC50 in [5] and in [6] were 0.137 µM (active) and > 60 µM (not active), respectively. In addition, the AC50 in assay [11] was 17.1 µM (active).

In general, IC50 refers to the concentration that inhibits the measured activity by half. By AC50 is commonly meant the concentration giving half of the maximal activity seen. As a reminder, the EC50 is the midpoint of the concentration-response curve.
